Measurements taken from US7186862B2, “Microbicidal agents on the basis of biphenylbenzamide derivatives” (Bayer CropScience AG, priority 2002, dated 2007).

Columns and labels:
[1] = tested on: Pyrenophora teres; experiment: Pyrenophora teres test (barley)/protective; assay type: in vivo; conditions: application rate 500 g/ha; barley plants, protective spray
Description: [table] To produce a suitable preparation of active compound, 1 part by weight of active compound is mixed with the stated amounts of solvent and emulsifier, and the concentrate is diluted with water to the desired concentration. To test for protective activity, young plants are sprayed with the preparation of active compound at the stated application rate. After the spray coating has dried on, the plants are sprayed with a conidia suspension of Pyrenophora teres. The plants remain in an incubation cabin at 20° C. and 100% relative atmospheric humidity for 48 hours. The plants are then placed in a greenhouse at about 20° C. and a relative atmospheric humidity of about 80%.

[2] = logP determination by HPLC on reversed-phase column (EEC Directive 79/831); assay type: physicochemical; conditions: reversed-phase HPLC column (C18), pH 2.3, reversed-phase C18, 43° C., 0.1% aqueous phosphoric acid/acetonitrile gradient
Description: The logP values given in the tables and preparation examples above are determined in accordance with EEC Directive 79/831 Annex V.48 by HPLC (High Performance Liquid Chromatography) on a reversed-phase column (C18). Temperature: 43° C. The determination is carried out in the acidic range at pH 2.3 using the mobile phases 0.1% aqueous phosphoric acid and acetonitrile; linear gradient from 10% acetonitrile to 90% acetonitrile. Calibration is carried out using unbranched […] (of 3 to 16 carbon atoms) with known logP values (determination of the logP values by the retention time using linear interpolation between two successive alkanones).

[3] = tested on: Venturia inaequalis; experiment: Venturia test (apple)/protective; assay type: in vivo; conditions: 240 h, application rate 100 g/ha, apple plants, protective spray, evaluation 10 days after inoculation, 100% = no infection, read-out: Efficacy in %
Description: (§1) [table] To produce a suitable preparation of active compound, 1 part by weight of active compound is mixed with the stated amounts of solvent and emulsifier, and the concentrate is diluted with water to the desired concentration. To test for protective activity, young plants are sprayed with the preparation of active compound at the stated application rate. After the spray coating has dried on, the plants are inoculated with an aqueous conidia suspension of the apple scab pathogen Venturia inaequalis and then remain in an incubation cabin at about 20° C. and 100% relative atmospheric humidity for 1 day. The plants are then placed in a greenhouse at about 21° C. and a relative atmospheric humidity of about 90%. Evaluation is carried out 10 days after the inoculation. 0% means an efficacy which corresponds to that of the control, whereas an efficacy of 100% means that no infection is observed.

[4] = tested on: Podosphaera leucotricha; experiment: Podosphaera test (apple)/protective; assay type: in vivo; conditions: 240 h, application rate 100 g/ha, apple plants, protective spray, evaluation 10 days after inoculation, 100% = no infection, read-out: Efficacy in %
Description: as §1, with “spore” for “conidia”, “mildew” for “scab”, “Podosphaera leucotricha.” for “Venturia inaequalis and then remain in an incubation cabin at about 20° C. and 100% relative atmospheric humidity for 1 day.”, “23°” for “21°”, “70%.” for “90%.”

[5] = tested on: Sphaerotheca fuliginea; experiment: Sphaerotheca test (cucumber)/protective; assay type: in vivo; conditions: Podosphaera fuliginea, 168 h; application rate 100 g/ha; cucumber plants, protective spray; evaluation 7 days after inoculation; 100% = no infection; read-out: Efficacy in %
Description: as §1, with “aqueous spore” for “aqueous conidia”, “of Sphaerotheca fuliginea.” for “of the apple scab pathogen Venturia inaequalis and then remain in an incubation cabin at about 20° C. and 100% relative atmospheric humidity for 1 day.”, “about 23°” for “about 21°”, “about 70%.” for “about 90%.”, “out 7” for “out 10”

[6] = tested on: Alternaria solani; experiment: Alternaria test (tomato)/protective; assay type: in vivo; conditions: application rate 750 g/ha; tomato plants, protective spray, inoculation 1 day after treatment; evaluation 7 days after inoculation; 100% = no infection
Description: [table] To produce a suitable p reparation of active compound, 1 part by weight of active compound is mixed with the stated amounts of solvent and emulsifier, and the concentrate is diluted with water to the desired concentration. To test for protective activity, young tomato plants are sprayed with the preparation of active compound at the stated application rate. 1 day after the treatment, the plants are inoculated with a spore suspension of Alternaria solani and are then kept at 100% relative atmospheric humidity and 20° C. for 24 h. The plants are then kept at 96% relative atmospheric humidity and a temperature of 20° C. Evaluation is carried out 7 days after the inoculation. 0% means an efficacy which corresponds to that of the control, whereas an efficacy of 100% means that no infection is observed.

| Compound | Efficacy in % [1] [%] | chromatographic logP [2] | pest or weed control at 100 g/ha [3] [%] | pest or weed control at 100 g/ha [4] [%] | pest or weed control at 100 g/ha [5] [%] | Efficacy in % [6] [%] |
| --- | --- | --- | --- | --- | --- | --- |
| O=C(Nc1ccccc1-c1ccc(Cl)c(Cl)c1)c1ccccc1C(F)(F)F [Compound 4] | 100 | 4.13 | 100 | 100 | 100 | – |
| O=C(Nc1ccccc1-c1cccc(Cl)c1)c1ccccc1C(F)(F)F [Compound 7] | 90 | 3.86 | 100 | 100 | 100 | 94 |
